According to US5670618A, “Insulin-like peptide” (The State University of New Jersey, priority 1995, dated 1997):

Key:
[1] = system: cell wall-less strain of Neurospora; conditions: cited from earlier work
[2] = target: T1, membrane-associated adenylate cyclase from Neurospora crassa (Neurospora crassa, UniProt Q01631); conditions: insulin at low doses (10^-9 M); cited from earlier work
T1 construct: host or cells: Neurospora crassa membranes

Tetrahymena pyriformis = conditions: cited from earlier work
[3] = system: solubilized and wheat germ column purified plasma membrane preparations; assay: binding to solubilized and wheat germ column purified plasma membrane preparations; parameters: species or system S. cerevisiae; conditions: wheat germ column purified membranes, comparable conditions
[4] = target: isolated plasma membranes (high affinity binding sites for insulin and IGF-I); assay: binding assays with isolated plasma membranes; parameters: species or system S. cerevisiae
[5] = system: cell wall-less strain of Neurospora; conditions: added to nutritionally rich, chemically defined culture medium; cited from earlier work
[6] = system: insulin receptor-like protein in yeast; assay: autophosphorylation of insulin receptor-like protein in yeast; format: cell-based
[7] = system: stationary phase cells (yeast); assay: stimulation of glycogen synthesis in yeast (14C-glucose incorporation); format: cell-based; conditions: binding to insulin-related receptor on yeast cell, under proper conditions
Protocol: To assay the effect of ScILP on glycogen synthesis, stationary phase cells are preincubated in phosphate buffer with various doses of ScILP (or a variant thereof). After 30 min of incubation in the presence of 1% glucose and uniformly labelled ^14 C-glucose, the cells are pelleted, resuspended in sodium carbonate, neutralized with HCl and treated with α-amylase to release the glucose incorporated into the newly synthesized glycogen. The enzymatically released glucose is collected and quantitated by scintillation counting.

intact yeast cells = assay: porcine 125I-insulin binding and displacement, intact yeast cells; parameters: species or system S. cerevisiae
Protocol: Insulin binding studies with intact logarithmic and stationary phase yeast cells were performed under typical conditions for mammalian cells (25,26). In logarithmic phase yeast, porcine ^125 I-insulin binding had reached apparent equilibrium by 1-2 h and represented ca. 0.5% of the total counts specifically bound (FIG. 2a). At this time, greater than 95% of the labelled insulin appeared to be intact, as judged by TCA precipitable counts. Unlabelled porcine insulin displaced labelled insulin from intact yeast cells in a dose dependent fashion with 50% bound occurring around 10^-9 M (FIG. 2b). This value is in good agreement with the value obtained for displacement of insulin from mammalian cells.

T1 sequence (Q01631 whole entry): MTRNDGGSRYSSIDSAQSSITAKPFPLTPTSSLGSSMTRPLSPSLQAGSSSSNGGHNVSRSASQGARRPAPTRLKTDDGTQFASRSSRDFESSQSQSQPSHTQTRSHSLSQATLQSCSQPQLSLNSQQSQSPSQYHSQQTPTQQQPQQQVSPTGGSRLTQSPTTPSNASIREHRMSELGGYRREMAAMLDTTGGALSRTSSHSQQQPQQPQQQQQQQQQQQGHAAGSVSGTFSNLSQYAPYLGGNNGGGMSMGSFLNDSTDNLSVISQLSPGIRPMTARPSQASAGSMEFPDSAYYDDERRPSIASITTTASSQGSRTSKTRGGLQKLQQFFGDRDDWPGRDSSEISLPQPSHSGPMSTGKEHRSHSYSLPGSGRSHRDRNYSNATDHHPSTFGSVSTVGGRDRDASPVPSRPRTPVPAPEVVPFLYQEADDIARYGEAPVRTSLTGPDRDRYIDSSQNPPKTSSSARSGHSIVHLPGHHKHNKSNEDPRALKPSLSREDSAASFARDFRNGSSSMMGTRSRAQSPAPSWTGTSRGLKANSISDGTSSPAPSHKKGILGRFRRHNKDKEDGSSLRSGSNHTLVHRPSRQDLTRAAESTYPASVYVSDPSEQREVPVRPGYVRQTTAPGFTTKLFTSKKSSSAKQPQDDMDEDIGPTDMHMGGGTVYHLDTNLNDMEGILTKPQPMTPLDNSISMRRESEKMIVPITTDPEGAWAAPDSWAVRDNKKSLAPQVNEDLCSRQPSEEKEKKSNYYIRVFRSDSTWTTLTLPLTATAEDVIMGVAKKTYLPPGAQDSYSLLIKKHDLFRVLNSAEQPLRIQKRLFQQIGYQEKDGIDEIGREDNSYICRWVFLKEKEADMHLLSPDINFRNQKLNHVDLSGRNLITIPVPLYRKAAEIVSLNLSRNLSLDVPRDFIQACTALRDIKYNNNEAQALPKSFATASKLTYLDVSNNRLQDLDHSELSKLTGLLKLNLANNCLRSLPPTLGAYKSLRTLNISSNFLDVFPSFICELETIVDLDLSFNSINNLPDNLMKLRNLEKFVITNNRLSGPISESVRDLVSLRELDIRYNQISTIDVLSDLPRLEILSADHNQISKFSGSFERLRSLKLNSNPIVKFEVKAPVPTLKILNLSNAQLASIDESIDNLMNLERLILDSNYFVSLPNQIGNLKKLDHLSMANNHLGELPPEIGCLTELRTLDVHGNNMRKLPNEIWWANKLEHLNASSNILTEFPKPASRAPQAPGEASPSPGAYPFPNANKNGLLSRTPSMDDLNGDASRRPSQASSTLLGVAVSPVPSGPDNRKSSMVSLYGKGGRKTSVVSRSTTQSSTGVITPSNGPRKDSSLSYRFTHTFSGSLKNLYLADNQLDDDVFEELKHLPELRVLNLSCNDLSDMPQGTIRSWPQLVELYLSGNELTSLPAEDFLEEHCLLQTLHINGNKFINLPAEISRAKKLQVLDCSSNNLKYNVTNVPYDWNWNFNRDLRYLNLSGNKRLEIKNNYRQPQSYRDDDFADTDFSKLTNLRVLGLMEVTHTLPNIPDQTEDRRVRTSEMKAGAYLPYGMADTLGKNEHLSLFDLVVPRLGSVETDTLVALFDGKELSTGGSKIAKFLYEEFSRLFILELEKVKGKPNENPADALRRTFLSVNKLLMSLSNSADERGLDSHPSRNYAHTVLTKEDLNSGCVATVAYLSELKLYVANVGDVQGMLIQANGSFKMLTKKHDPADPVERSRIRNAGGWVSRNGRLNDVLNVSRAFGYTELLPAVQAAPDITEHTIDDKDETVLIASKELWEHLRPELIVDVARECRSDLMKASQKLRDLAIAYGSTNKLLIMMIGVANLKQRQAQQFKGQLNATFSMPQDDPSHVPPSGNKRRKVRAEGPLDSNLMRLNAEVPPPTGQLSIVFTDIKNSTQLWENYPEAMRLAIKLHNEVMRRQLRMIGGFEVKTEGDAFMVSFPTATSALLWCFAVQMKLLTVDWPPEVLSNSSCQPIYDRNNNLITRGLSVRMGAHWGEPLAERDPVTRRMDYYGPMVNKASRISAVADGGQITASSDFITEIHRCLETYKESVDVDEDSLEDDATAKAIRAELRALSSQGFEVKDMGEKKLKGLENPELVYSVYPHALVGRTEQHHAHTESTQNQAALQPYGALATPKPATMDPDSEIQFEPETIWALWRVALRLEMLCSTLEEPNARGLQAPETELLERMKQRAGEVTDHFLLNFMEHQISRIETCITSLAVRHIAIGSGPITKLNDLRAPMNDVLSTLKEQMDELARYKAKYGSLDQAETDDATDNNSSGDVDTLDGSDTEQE

bovine insulin
increase of 14C-labelled glucose incorporation into glycogen ([1]; 30 min treatment, 100 nM): 41% | more glycogen than control cells ([1]; cells grown in presence of 100 nM insulin): 40% | intracellular levels of UDPG-glucose by 31P-NMR [1]: increase | effect on adenylate cyclase specific activity [2]: significantly inhibit | effect on glucose uptake (Tetrahymena pyriformis): small effect

glucagon
effect on adenylate cyclase specific activity [2]: stimulated adenylate cyclase activity

insulin
specific binding (of 4-5% total binding) [3]: 1-2% | Kd [4]: 0.7 nM

insulin-like growth factor (IGF-I)
specific binding (of 4-5% total binding) [3]: 1-2%

mammalian insulin
influence on growth, morphology and viability [5]: distinctively different morphology, enhanced growth, and extension of viability at the stationary phase in culture | autophosphorylation of insulin receptor-like protein on tyrosine residues [6]: results in its autophosphorylation on tyrosine residues | effect on glycogen synthesis [7]: stimulates glycogen synthesis

porcine insulin
labelled insulin intact, judged by TCA precipitable counts (intact yeast cells; at apparent equilibrium of binding (1-2 h)): greater than 95% | IC50 (intact yeast cells; intact yeast cells, dose dependent displacement, read-out: concentration of unlabelled insulin at 50% bound (displacement of labelled insulin)): ~1 nM | time to apparent binding equilibrium (intact yeast cells; logarithmic phase yeast): 1 to 2 h | total counts specifically bound (intact yeast cells; logarithmic phase yeast, at apparent equilibrium): ca. 0.5%

proinsulin
influence on growth, morphology and viability [5]: inactive

reduced insulin
influence on growth, morphology and viability [5]: inactive
